The results in this text go back to patent US20240270701A1, “BETA ADRENERGIC AGONIST AND METHODS OF USING THE SAME” (Curasen Therapeutics, Inc., priority 2021, published 2024).

As usually defined, the Emax is the size of the effect at its maximum, as opposed to the concentration needed.

The target of one experiment is T1, B2-AR (Homo sapiens, UniProt P07550).
T1 construct: expressed in transfected cells; host or cells: CHO-K1
Put plainly: cAMP Gs dynamic HTRF assay, cells expressing beta-adrenergic receptor (CHO-K1), B2-AR. The format is cell-based. The note with it: for EC50: cAMP HTRF, read-out: pEC50 [B2-AR] (converted); for Emax: relative to full agonist isoproterenol, read-out: Emax (% iso) (%) [B2-AR]. Background: TR-FRET usually uses a lanthanide donor and a delayed reading to cut background.

The target of a further experiment is T2, B1-AR (Homo sapiens, UniProt P08588).
T2 construct: expressed in transfected cells; host or cells: CHO-K1
T2 sequence (P08588 whole entry, species assumed): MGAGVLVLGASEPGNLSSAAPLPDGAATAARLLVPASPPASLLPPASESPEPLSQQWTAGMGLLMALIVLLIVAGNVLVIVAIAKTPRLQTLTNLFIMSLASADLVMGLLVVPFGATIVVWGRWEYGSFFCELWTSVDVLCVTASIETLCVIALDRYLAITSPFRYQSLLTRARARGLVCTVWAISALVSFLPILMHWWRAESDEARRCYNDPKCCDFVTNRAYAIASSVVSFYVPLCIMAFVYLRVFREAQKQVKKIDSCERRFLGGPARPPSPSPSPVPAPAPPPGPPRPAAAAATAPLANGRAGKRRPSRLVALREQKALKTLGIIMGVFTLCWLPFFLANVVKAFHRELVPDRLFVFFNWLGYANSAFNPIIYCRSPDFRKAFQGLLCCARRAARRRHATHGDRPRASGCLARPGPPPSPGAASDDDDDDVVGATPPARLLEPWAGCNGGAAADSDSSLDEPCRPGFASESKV
Briefly: cAMP Gs dynamic HTRF assay, cells expressing beta-adrenergic receptor (CHO-K1), B1-AR. The format is cell-based. The conditions noted are these: for EC50: cAMP HTRF, read-out: pEC50 [B1-AR] (converted); for Emax: relative to full agonist isoproterenol, read-out: Emax (% iso) (%) [B1-AR].

Where two headings read alike, the source gives them in different places.

T1 sequence (P07550 whole entry, species assumed): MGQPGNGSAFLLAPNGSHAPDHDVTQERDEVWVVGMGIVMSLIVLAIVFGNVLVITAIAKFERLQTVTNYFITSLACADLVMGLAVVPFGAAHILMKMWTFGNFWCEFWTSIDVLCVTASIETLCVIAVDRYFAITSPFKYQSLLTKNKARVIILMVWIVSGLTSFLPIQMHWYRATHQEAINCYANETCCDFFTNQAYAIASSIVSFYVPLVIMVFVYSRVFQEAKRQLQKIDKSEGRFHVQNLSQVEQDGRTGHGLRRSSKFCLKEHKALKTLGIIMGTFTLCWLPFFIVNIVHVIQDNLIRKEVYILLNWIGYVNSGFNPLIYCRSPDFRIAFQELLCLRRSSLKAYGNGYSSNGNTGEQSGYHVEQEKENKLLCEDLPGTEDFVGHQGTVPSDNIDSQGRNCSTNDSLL

Regarding `CC(C)(C)CNC[C@H](O)c1cccc2[nH]ncc12` [I-88], the EC50 on B2-AR (CHO-K1 cells) was less than 10 nM; on B1-AR, 100 to 1000 nM. The values for the Emax at B2-AR (CHO-K1 cells) and on B1-AR were greater than 90% and 70 to 90%, respectively.

For the compound `CC(C)(C)CNC[C@H](O)c1cccc2[nH]nc(F)c12` [I-90], the Emax was greater than 90% on B2-AR (CHO-K1, CHO-K1 cells) and 70 to 90% at B1-AR. The EC50 is 10 to 100 nM at B2-AR (CHO-K1 cells) and 100 to 1000 nM at B1-AR.

`CC1C(=O)Nc2cccc([C@@H](O)CNC(C)(C)C)c21` (stereo partly drawn) [I-91]: at B2-AR (CHO-K1 cells), the EC50 is greater than 1000 nM and the Emax is less than 50%. In addition, on B1-AR, the EC50 is greater than 1000 nM and the Emax is less than 50%.

`CC(C)(C)CNC[C@H](O)c1cc(F)cc2[nH]ncc12` [I-92]: the Emax is greater than 90% on B2-AR (CHO-K1, CHO-K1 cells) and 70 to 90% at B1-AR. For the same compound, the EC50 at B2-AR (CHO-K1 cells) is less than 10 nM; at B1-AR, 10 to 100 nM.

As to `Cn1c(=O)[nH]c2cccc([C@@H](O)CNC(C)(C)C)c21` [I-93], at B2-AR (CHO-K1 cells), the EC50 was greater than 1000 nM and the maximal effect (Emax) is greater than 90%. Further, on B1-AR, the EC50 was greater than 1000 nM and the Emax lay in the range of 70 to 90%.

Take `CC(C)(C)NC[C@H](O)c1cccc2[nH]c(=O)[nH]c12` [I-94]: on B2-AR (CHO-K1 cells), the EC50 was 100 to 1000 nM and the Emax lay in the range of 70 to 90%. Further, at B1-AR, the EC50 is 100 to 1000 nM and the Emax lay within 70 to 90%.

For `CC(C)(C)NC[C@H](O)c1cccc2[nH]nc(C(N)=O)c12` [I-95], on B2-AR (CHO-K1 cells), the EC50 was 100 to 1000 nM and the Emax lay in the range of 50 to 70%. Moreover, on B1-AR, the EC50 is 100 to 1000 nM and the maximal response (Emax) fell in the range of 70 to 90%.

Take `CC1(NC[C@H](O)c2cccc3[nH]nc(Cl)c23)CCC1` [I-96]: on B2-AR (CHO-K1 cells), the EC50 was less than 10 nM and the Emax is greater than 90%. Also, at B1-AR, the EC50 is less than 10 nM and the Emax fell in the range of 70 to 90%.

Regarding `O[C@@H](CNC1CCC1)c1cccc2[nH]nc(Cl)c12` [I-97], on B2-AR (CHO-K1 cells), the EC50 is less than 10 nM and the maximum response (Emax) was greater than 90%. Further, on B1-AR, the EC50 is 10 to 100 nM and the Emax was 70 to 90%.

Consider `O[C@@H](CNC1CC1)c1cccc2[nH]nc(Cl)c12` [I-98], for which, at B2-AR (CHO-K1 cells), the EC50 was less than 10 nM and the Emax is 70 to 90%. In addition, at B1-AR, the EC50 is 10 to 100 nM and the Emax is 70 to 90%.

`CC(C)CNC[C@H](O)c1cccc2[nH]nc(Cl)c12` [I-99]: the results for the EC50 at B2-AR (CHO-K1 cells) and at B1-AR were 10 to 100 nM and 100 to 1000 nM, respectively. The Emax on B2-AR (CHO-K1 cells) and at B1-AR was 70 to 90% throughout.

Regarding `CC1(NC[C@H](O)c2cccc3[nH]nc(Cl)c23)CC1` [I-100], the Emax is greater than 90% on B2-AR (CHO-K1, CHO-K1 cells) and 70 to 90% at B1-AR. Moreover, the EC50 at B2-AR (CHO-K1 cells) and at B1-AR was less than 10 nM throughout.

Turning to `CC(C)NC[C@H](O)c1cccc2[nH]nc(Cl)c12` [I-101], the EC50 on B2-AR (CHO-K1 cells) and on B1-AR was less than 10 nM each time. Moreover, the Emax on B2-AR (CHO-K1 cells) and at B1-AR was greater than 90% in each case.

In the case of `CC(C)(C)NC[C@H](O)c1ccc(OC(F)F)c2[nH]ncc12` [I-102], the maximal effect (Emax) is less than 50% on B2-AR (CHO-K1, CHO-K1 cells) and 50 to 70% on B1-AR. The results for the EC50 on B2-AR (CHO-K1 cells) and on B1-AR were less than 10 nM and 100 to 1000 nM, respectively.

`CC(C)(C)NC[C@H](O)c1cc(C2CC2)cc2[nH]ncc12` [I-103]: the Emax on B2-AR (CHO-K1, CHO-K1 cells) was 50 to 70%; at B1-AR, 50 to 70%. Also, the EC50 at B2-AR (CHO-K1 cells) is 10 to 100 nM; at B1-AR it was greater than 1000 nM.

On to `CC(C)c1cc([C@@H](O)CNC(C)(C)C)c2cn[nH]c2c1` [I-104], for which the maximal response (Emax) at B2-AR (CHO-K1, CHO-K1 cells) lay in the range of 70 to 90%; on B1-AR, 70 to 90%. For the same compound, the EC50 on B2-AR (CHO-K1 cells) is 100 to 1000 nM; on B1-AR, greater than 1000 nM.

For `CCc1cc([C@@H](O)CNC(C)(C)C)c2cn[nH]c2c1` [I-105], the Emax on B2-AR (CHO-K1, CHO-K1 cells) is less than 50%; on B1-AR, less than 50%. The EC50 on B2-AR (CHO-K1 cells) was 100 to 1000 nM; on B1-AR it was greater than 1000 nM.

For `CC(C)(C)NC[C@H](O)c1cc(OC(F)F)cc2[nH]ncc12` [I-106], the Emax fell in the range of 50 to 70% on B2-AR (CHO-K1, CHO-K1 cells) and 70 to 90% on B1-AR. Also, the EC50 at B2-AR (CHO-K1 cells) is 10 to 100 nM; on B1-AR, 100 to 1000 nM.

On to `CC1(NC[C@H](O)c2cccc3[nH]cc(F)c23)CC1` [I-107], for which the maximal effect (Emax) was greater than 90% on B2-AR (CHO-K1, CHO-K1 cells) and greater than 90% at B1-AR. The EC50 at B2-AR (CHO-K1 cells) and at B1-AR was less than 10 nM throughout.

For the compound `O[C@@H](CNC1CC1)c1cccc2[nH]cc(F)c12` [I-108], the Emax is greater than 90% on B2-AR (CHO-K1, CHO-K1 cells) and greater than 90% on B1-AR. The EC50 at B2-AR (CHO-K1 cells) and on B1-AR was 10 to 100 nM throughout.

On to `CC(C)(CO)NC[C@H](O)c1cccc2[nH]cc(F)c12` [I-109], for which the EC50 at B2-AR (CHO-K1 cells) and on B1-AR was 10 to 100 nM in each case. The maximal response (Emax) on B2-AR (CHO-K1 cells) and on B1-AR was greater than 90% each time.

As for `CC1(NC[C@H](O)c2cccc3[nH]cc(F)c23)CCC1` [I-110], the maximal response (Emax) on B2-AR (CHO-K1, CHO-K1 cells) was greater than 90%; on B1-AR, greater than 90%. In addition, the EC50 on B2-AR (CHO-K1 cells) and at B1-AR was less than 10 nM each time.

In the case of `CC(C)CNC[C@H](O)c1cccc2[nH]cc(F)c12` [I-111], the Emax is 70 to 90% on B2-AR (CHO-K1, CHO-K1 cells) and greater than 90% on B1-AR. Moreover, the EC50 on B2-AR (CHO-K1 cells) and on B1-AR was 10 to 100 nM in each case.

`CC(C)NC[C@H](O)c1cccc2[nH]cc(F)c12` [I-112]: the Emax at B2-AR (CHO-K1, CHO-K1 cells) was greater than 90%; at B1-AR, greater than 90%. The EC50 at B2-AR (CHO-K1 cells) and on B1-AR was less than 10 nM throughout.

In the case of `O[C@@H](CNC1CCC1)c1cccc2[nH]cc(F)c12` [I-113], the Emax at B2-AR (CHO-K1, CHO-K1 cells) was greater than 90%; on B1-AR, greater than 90%. Further, the EC50 on B2-AR (CHO-K1 cells) was 10 to 100 nM; at B1-AR it was less than 10 nM.

`CC(C)(C)NC[C@H](O)c1cccc2[nH]nc(Cl)c12` [I-114]: the Emax on B2-AR (CHO-K1, CHO-K1 cells) is greater than 90%; on B1-AR it was greater than 90%. For the same compound, the EC50 at B2-AR (CHO-K1 cells) and at B1-AR was less than 10 nM each time.

As for `Cc1c(Cl)[nH]c2cccc([C@@H](O)CNC(C)(C)C)c12` [I-115], the maximum response (Emax) on B2-AR (CHO-K1, CHO-K1 cells) was 70 to 90%; on B1-AR, 70 to 90%. Besides, the EC50 on B2-AR (CHO-K1 cells) was 100 to 1000 nM; at B1-AR, greater than 1000 nM.

In the case of `CC(C)(CO)NC[C@H](O)c1ccc(Cl)c2[nH]ncc12` [I-116], the Emax on B2-AR (CHO-K1, CHO-K1 cells) lay in the range of 70 to 90%; on B1-AR, 70 to 90%. In addition, the results for the EC50 at B2-AR (CHO-K1 cells) and at B1-AR were less than 10 nM and 10 to 100 nM, respectively.

In the case of `CC(C)CNC[C@H](O)c1ccc(Cl)c2[nH]ncc12` [I-117], the EC50 at B2-AR (CHO-K1 cells) and at B1-AR was 10 to 100 nM in each case. Besides, the figures for the Emax at B2-AR (CHO-K1 cells) and on B1-AR were 70 to 90% and 50 to 70%, respectively.

For the compound `CC1(NC[C@H](O)c2ccc(Cl)c3[nH]ncc23)CCC1` [I-118], the maximal effect (Emax) on B2-AR (CHO-K1, CHO-K1 cells) fell in the range of 70 to 90%; at B1-AR, 70 to 90%. For the same compound, the EC50 on B2-AR (CHO-K1 cells) and at B1-AR was less than 10 nM in each case.

`O[C@@H](CNC1CCC1)c1ccc(Cl)c2[nH]ncc12` [I-119]: at B2-AR (CHO-K1 cells), the EC50 is less than 10 nM and the Emax was in the range of 70 to 90%. In addition, at B1-AR, the EC50 was less than 10 nM and the Emax is 70 to 90%.

On to `CC1(NC[C@H](O)c2ccc(Cl)c3[nH]ncc23)CC1` [I-120], for which the Emax lay within 70 to 90% on B2-AR (CHO-K1, CHO-K1 cells) and 70 to 90% on B1-AR. Further, the EC50 on B2-AR (CHO-K1 cells) and on B1-AR was less than 10 nM each time.

`O[C@@H](CNC1CC1)c1ccc(Cl)c2[nH]ncc12` [I-121]: the Emax at B2-AR (CHO-K1, CHO-K1 cells) is 70 to 90%; at B1-AR, 50 to 70%. The EC50 at B2-AR (CHO-K1 cells) and at B1-AR was less than 10 nM in each case.
